From patent publication US20210353749A1, “GUANABENZ AS AN ADJUVANT FOR IMMUNOTHERAPY” (UNIVERSITÉ CATHOLIQUE DE LOUVAIN, priority 2018, published 2021)

What was measured:
TiRP tumor [1] = assay: TiRP melanoma model, drug alone; format: in vivo, mouse; conditions: 5 mg/kg i.p. daily from tumor size around 400 mm^3 (day 0) to day 12, vs vehicle; FIG. 3
Description: TiRP mice: TiRP mice have been created by crossing Ink4a/Arf^flox/flox mice with mice carrying a transgenic construct controlled by the tyrosinase promoter and driving the expression of H-Ras^12V and Trap1a which encodes a MAGE-type tumor antigen P1A; the promoter is separated from the coding region by a stop cassette made of a floxed self-deleting CreER (Huijbers et al., 2006, Cancer Res 66, 3278-3286). Those mice were backcrossed to a B10.D2 background and bred to homozygosity. TCRP1A mice heterozygous for the H-2Ld/P1A35-43-specific TCR transgene were kept on the B10.D2; Rag1^−/− background (Shanker et al., 2004, J Immunol 172, 5069-5077). All mice used in this study were produced under specific pathogen free (SPF) conditions at the animal facility of the Ludwig Institute for Cancer Research. All the rules concerning animal welfare have been respected according to the 2010/63/EU Directive. […]
A fresh solution of 40H-Tamoxifen was prepared by dissolving 40H-Tamoxifen (Imaginechem) in 100% ethanol and mineral oil (ratio 1:9) followed by 30-min sonication, and injected subcutaneously (2 mg/200 μL per mouse) in the neck area of gender-matched 7 weeks old TiRP mice. Tumor appearance was monitored daily and tumors were measured three times/week. Tumor volume (in mm^3) was calculated by the following formula: Volume=width^2×length/2. […]

TiRP tumor [2] = assay: Immunodeficient Rag1-/- TiRP+/+ mice, TiRP tumor; format: in vivo, mouse; conditions: Rag1-/- TiRP+/+ mice lacking T cells, 5 mg/kg i.p. daily from about 500 mm^3 (day 0) to day 15, vs control; FIG. 4
Procedure: FIG. 4 is a graph showing the tumor size in the immunodeficient Rag1^-/- TiRP^+/+ mice that were injected with 4-OH-Tamoxifen to induce a TiRP tumor. When the tumor reached 500 mm^3 (day 0), the tumor bearing mice were randomized and received daily injections of guanabenz (5 mg/kg, i.p.) or vehicle (PBS, i.p.) until the day of sacrifice (day 15). A fresh solution of […]-Tamoxifen was prepared by dissolving […]-Tamoxifen ([…]) in 100% ethanol and mineral oil (ratio 1:9) followed by 30-min sonication, and injected subcutaneously (2 mg/200 μL per mouse) in the neck area of gender-matched 7 weeks old TiRP mice. Tumor appearance was monitored daily and tumors were measured three times/week. Tumor volume (in mm^3) was calculated by the following formula: Volume=width^2×length/2. Tumor-bearing TiRP mice were randomized based on the tumor size when average volume was 400 mm^3, 500 mm^3 or 1000 mm^3 as indicated. T cells were incubated with guanabenz (10, 20, or 40 μM) for 16 h to 24 h as indicated. Mice received a daily intra-peritoneal injection of guanabenz (5 mg/kg) or vehicle (PBS) from the day of randomization (and the day of ACT when applicable) until the day of sacrifice. As a control, tumors were induced in immunodeficient TiRP mice lacking T cells due to the deletion of the Rag1 gene (Rag 1^-/- TiRP^+/+ mice). […]

[3] = test system: P1A-antigen specific CD8+ T cells; assay: Immunization with irradiated L1210-P1A-B7.1 tumor cells; format: in vivo, DBA/2 mice; conditions: 100 μg (5 mg/kg) guanabenz with vaccine, vs negative control and immunization alone
Procedure: Immunization with irradiated L1210-P1A-B7.1 tumor cells: DBA/2 mice received a vaccine consisting of 1 million irradiated L1210-P1A-B7.1 cells expressing the P1A antigen either alone or with 100 μg (5 mg/kg) guanabenz. When administered, guanabenz was given 1 hour before the immunization and daily after the immunization.
Tetramer staining: one week after the immunization, the spleen of each mouse was collected. Isolated splenocytes from the immunized mice were cultured and restimulated with L1210-P1A-B7.1 cells at a ratio of 1:1. Four days after restimulation, P1A-antigen specific CD8^+ T cells were stained with PE-conjugated P1A tetramer and APC-conjugated anti-CD8 antibody.
Interferon gamma secretion: one week after the immunization, the spleen of each mouse was collected. Splenocytes from the immunized mice were restimulated with L1210-P1A-B7.1 cells at a ratio of 1:1. Four days after restimulation, the splenocytes were collected and plated at 50,000 cells per well in 96 U plate. L1210-P1A-B7.1 cells were added to each well as target cells at a ratio of 1:1. The plate was then incubated at 37° C. overnight. At the end of the incubation, the supernatant from the cells were collected and the amount of secreted IFNγ was measured by ELISA according to the manufacturer's instruction (R&D). […]

## NC(N)=N/N=C/c1c(Cl)cccc1Cl [guanabenz, 2-[(E)-(2,6-dichlorophenyl)methylideneamino]guanidine]
TiRP tumor [1]
  TiRP tumor growth: inhibitory effect
TiRP tumor [2]
  TiRP tumor growth: did not induce a decrease
[3]; activation with L1210-P1A-B7.1 cells, FIG. 7B
  splenocyte IFNγ secretion (ELISA): significant increase
[3]; splenocytes one week after immunization, FIG. 7A
  percentage of P1A-antigen specific CD8+ T cells among total CD8+ T cells after restimulation with the P1A-antigen: significant increase
